Experimental data reported in publication PMC12678798, “Discovery of an allosteric binding site for anthraquinones at the human P2X4 receptor” (Nature Communications, 2025).
Substitutions are numbered along the chain they refer to. “Also recorded” adds a separate entry of the source.

How the values were obtained:
[1] = target: T1, P2X4 receptor mutant E307Q (Homo sapiens, UniProt Q99571, E307Q); experiment: TEVC, P2X4-E307Q mutant in Xenopus laevis oocytes; assay type: cell-based; settings: 10 µM ATP, 2 min preincubation, PSB-0704 3 µM, PSB-0739 300 nM and 1 µM
T1 construct: host or cells: Xenopus laevis oocytes injected with cRNA (pNKS2 vector)
Experimental: (§1) Xenopus laevis frogs were from Nasco International (Fort Atkinson, WI, USA) and kept at the Core Facility Animal Models (CAM) of the BMC of LMU Munich, Germany (Az: 4.3.2–5682/LMU/BMC/CAM) in accordance with the EU Animal Welfare Act. […] Fifty nanoliters of cRNA (0.5 µg/µL) were injected using a Nanoject II injector (Science Products, Drummond, USA) and oocytes were kept in ND96 (96 mM NaCl, 2 mM KCl, 1 mM MgCl2, 1 mM CaCl2, 5 mM HEPES, pH 7.4–7.5) supplemented with 5 μg/mL gentamicin at 16 °C.
(§2) cDNA encoding human P2X4 receptor (NM_002560.3) was obtained from BioCat GmbH (Heidelberg, Germany) and cloned into the pNKS2 vector[87] using Gibson Assembly (E2621L, New England Biolabs, USA) according to the manufacturer’s instructions. Point mutations were introduced by site-directed mutagenesis using KLD Enzyme Mix (M0554S, New England Biolabs, USA). All constructs were verified by full-length cDNA sequencing (Eurofins Genomics, Germany). Plasmids were linearized with NotI-HF (R3189S, New England Biolabs, USA) and purified using the MinElute Reaction Cleanup Kit (Qiagen, Hilden, Germany). […]
(§3) Statistical analysis was performed with GraphPad Prism version 10 software, and data are presented as means ± SEM. Data were assessed for normality using the Shapiro–Wilk test and for homogeneity of variances using Levene’s test. […]

[2] = target: T2, human wt P2X4 receptor (Homo sapiens, UniProt Q99571); experiment: ATP-induced calcium influx assay, human wt P2X4 receptor in 1321N1 astrocytoma cells; assay type: cell-based
T2 construct: expressed in transfected cells
T2 sequence (Q99571 1-388): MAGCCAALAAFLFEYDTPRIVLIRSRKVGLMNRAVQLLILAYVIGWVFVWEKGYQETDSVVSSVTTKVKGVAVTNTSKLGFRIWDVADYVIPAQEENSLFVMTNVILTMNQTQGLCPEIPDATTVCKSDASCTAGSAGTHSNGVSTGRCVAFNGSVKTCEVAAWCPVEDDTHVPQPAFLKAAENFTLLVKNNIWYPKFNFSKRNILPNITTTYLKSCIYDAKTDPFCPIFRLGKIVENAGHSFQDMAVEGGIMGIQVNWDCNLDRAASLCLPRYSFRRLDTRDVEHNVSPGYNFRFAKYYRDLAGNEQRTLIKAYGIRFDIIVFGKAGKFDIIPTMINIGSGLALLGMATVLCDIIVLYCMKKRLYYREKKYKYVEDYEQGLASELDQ

[3] = target: T3, human P2X4-E307T receptor mutant (Homo sapiens, UniProt Q99571, E307T); experiment: ATP-induced calcium influx assay, P2X4-E307T mutant in 1321N1 astrocytoma cells; assay type: cell-based
T3 construct: expressed in transfected cells
T3 sequence (Q99571 1-388 E307T): T2 sequence (Q99571 1-388) with E307T

[4] = Physicochemical properties (water solubility, lipophilicity); settings: as stated in words
[5] = target: T4, P2X4 receptor mutant E307T_R82A (Homo sapiens, UniProt Q99571, E307T/R82A); experiment: TEVC, double mutant E307T_R82A in Xenopus laevis oocytes; assay type: cell-based; settings: 10 µM ATP, 2 min preincubation
T4 construct: host or cells: Xenopus laevis oocytes injected with cRNA (pNKS2 vector)
Experimental: as §1, §2, §3

[6] = target: T5, P2X4 receptor mutant E307T_R301K (Homo sapiens, UniProt Q99571, E307T/R301K); experiment: TEVC, double mutant E307T_R301K in Xenopus laevis oocytes; assay type: cell-based; settings: 10 µM ATP, 2 min preincubation
T5 construct: host or cells: Xenopus laevis oocytes injected with cRNA (pNKS2 vector)
Experimental: as §1, §2, §3

[7] = target: T6, P2X4 receptor mutant E307T_R301A (Homo sapiens, UniProt Q99571, E307T/R301A); experiment: TEVC, double mutant E307T_R301A in Xenopus laevis oocytes; assay type: cell-based; settings: 10 µM ATP, 2 min preincubation
T6 construct: host or cells: Xenopus laevis oocytes injected with cRNA (pNKS2 vector)
Experimental: as §1, §2, §3

[8] = target: T7, hP2X4-E307T receptor mutant (Homo sapiens, UniProt Q99571, E307T); experiment: Two-electrode voltage clamp (TEVC), P2X4-E307T in Xenopus laevis oocytes; assay type: cell-based; settings: for Inhibition of ATP-induced current: E307T, 10 µM ATP, 2 min preincubation, PSB-0704 3 µM, PSB-0739 300 nM and 1 µM; for IC50: read-out: pIC50 (inhibition of ATP-induced current) (converted)
T7 construct: host or cells: Xenopus laevis oocytes injected with cRNA (pNKS2 vector)
T7 sequence (Q99571 1-388 E307T): T2 sequence (Q99571 1-388) with E307T

[9] = target: T8, P2X4 receptor mutant E307T_K298A (Homo sapiens, UniProt Q99571, E307T/K298A); experiment: TEVC, double mutant E307T_K298A in Xenopus laevis oocytes; assay type: cell-based; settings: 10 µM ATP, 2 min preincubation
T8 construct: host or cells: Xenopus laevis oocytes injected with cRNA (pNKS2 vector)
Experimental: as §1, §2, §3

[10] = target: T9, chimeric P2X4(P2X2) receptor c10^R301-Q308 (Homo sapiens, UniProt Q99571, A304N/D302K/DEL301-301/E307T/L303I/N306T/Q308T); experiment: ATP-induced calcium influx assay, chimeric receptor c10 in 1321N1 astrocytoma cells; assay type: cell-based
T9 construct: expressed in transfected cells; gene synthesis (Geneart), pLVX-IRES-mCherry (bicistronic, mCherry not fused)
T9 sequence (Q99571 with tags, fused parts or gaps DEL301-301/D302K/L303I/A304N/N306T/E307T/Q308T): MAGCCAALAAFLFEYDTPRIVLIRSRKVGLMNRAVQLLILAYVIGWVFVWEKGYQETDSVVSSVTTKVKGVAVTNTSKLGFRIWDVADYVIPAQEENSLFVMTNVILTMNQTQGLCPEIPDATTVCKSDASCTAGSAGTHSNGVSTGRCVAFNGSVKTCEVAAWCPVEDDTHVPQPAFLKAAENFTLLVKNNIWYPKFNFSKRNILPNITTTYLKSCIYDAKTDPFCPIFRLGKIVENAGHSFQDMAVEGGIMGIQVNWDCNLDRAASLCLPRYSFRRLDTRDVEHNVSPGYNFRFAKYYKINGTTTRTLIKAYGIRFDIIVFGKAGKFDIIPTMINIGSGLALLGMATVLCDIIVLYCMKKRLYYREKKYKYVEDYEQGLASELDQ

T5 sequence (Q99571 whole entry R301K/E307T): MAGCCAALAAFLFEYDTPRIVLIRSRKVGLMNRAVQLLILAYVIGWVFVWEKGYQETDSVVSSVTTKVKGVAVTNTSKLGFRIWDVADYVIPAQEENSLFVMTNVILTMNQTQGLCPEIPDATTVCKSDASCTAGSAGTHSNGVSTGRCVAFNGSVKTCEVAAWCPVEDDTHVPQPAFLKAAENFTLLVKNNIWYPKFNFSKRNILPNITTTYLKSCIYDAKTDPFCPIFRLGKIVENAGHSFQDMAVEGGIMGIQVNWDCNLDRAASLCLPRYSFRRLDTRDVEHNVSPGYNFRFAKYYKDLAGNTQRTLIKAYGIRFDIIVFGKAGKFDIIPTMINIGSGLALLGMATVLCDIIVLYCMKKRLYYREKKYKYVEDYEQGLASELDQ
T4 sequence (Q99571 whole entry R82A/E307T): as the sequence (Q99571 whole entry R301K/E307T) above, with R82A, K301R counted along it
T6 sequence (Q99571 whole entry R301A/E307T): as the sequence (Q99571 whole entry R301K/E307T) above, with K301A counted along it
T8 sequence (Q99571 whole entry K298A/E307T): as the sequence (Q99571 whole entry R301K/E307T) above, with K298A, K301R counted along it
T1 sequence (Q99571 whole entry E307Q): as the sequence (Q99571 whole entry R301K/E307T) above, with K301R, T307Q counted along it

Inhibition of ATP-induced current [1]	IC50 [2]	IC50 [3]	Potency increase at P2X4-E307T compared to wt P2X4 ([3]; ratio of IC50 values, calcium influx)	Water solubility [4]	Effect of mutation on antagonist potency (vs E307T) [5]	Effect of mutation on antagonist potency (vs E307T) [7]	Inhibition of ATP-induced current [8]	IC50 [8]	Effect of mutation on antagonist potency (vs E307T) [9]	IC50 [10]	SMILES	Effect of mutation on antagonist potency (vs E307T) [6]
strong inhibition	12500 ± 1900 nM	72.4 ± 10.2 nM	> 170 fold	water-soluble	reduction in inhibitory potency	reduction in inhibitory potency	strong inhibition	1620 nM	reduction in inhibitory potency	–	Nc1c(C(=O)O)cc(Nc2ccc(Nc3ccccc3)c(C(=O)O)c2)c2c1C(=O)c1ccccc1C2=O [PSB-0704]	similarly potent; also recorded: no consequences
strong inhibition	8910 ± 670 nM	35.3 ± 4.7 nM	–	–	reduction in inhibitory potency	reduction in inhibitory potency	strong inhibition	324 nM	reduction in inhibitory potency	3.41 ± 0.49 nM	Nc1c(S(=O)(=O)O)cc(Nc2ccc(Nc3ccccc3)c(S(=O)(=O)O)c2)c2c1C(=O)c1ccccc1C2=O [PSB-0739]	similarly potent; also recorded: no consequences
